Values quoted from earlier work as cited in US20040018954A1, “Composition of menthol and menthyl lactate, its preparation method and its applications as a cooling agent” (priority 2002, published 2004).

Conditions: manufacturer's product literature

solubility: oil soluble | stable in the pH range: 4-8
SMILES: CC1CCC(C(C)C)C(OC(=O)C(C)O)C1 (centres unmarked) [Frescolat ML, menthyl lactate]
